# From patent US20240116985A1, “STAPLED PEPTIDES AND METHODS THEREOF” (priority 2020, published 2024)
# Like-named read-outs stand apart in the source and are kept apart here.
# Assays:
# [1] = target: T1, beta-catenin/TCF4 engagement (Homo sapiens, UniProt P35222); assay: Nano-BRET target engagement assay (B-cat-Halo & TCF4-Luc in HEK293 cells); format: cell-based; conditions: read-out: NanoBRET Abs IC50
# T1 construct: expressed in transfected cells; host or cells: HEK293
# T1 sequence (P35222 1-781): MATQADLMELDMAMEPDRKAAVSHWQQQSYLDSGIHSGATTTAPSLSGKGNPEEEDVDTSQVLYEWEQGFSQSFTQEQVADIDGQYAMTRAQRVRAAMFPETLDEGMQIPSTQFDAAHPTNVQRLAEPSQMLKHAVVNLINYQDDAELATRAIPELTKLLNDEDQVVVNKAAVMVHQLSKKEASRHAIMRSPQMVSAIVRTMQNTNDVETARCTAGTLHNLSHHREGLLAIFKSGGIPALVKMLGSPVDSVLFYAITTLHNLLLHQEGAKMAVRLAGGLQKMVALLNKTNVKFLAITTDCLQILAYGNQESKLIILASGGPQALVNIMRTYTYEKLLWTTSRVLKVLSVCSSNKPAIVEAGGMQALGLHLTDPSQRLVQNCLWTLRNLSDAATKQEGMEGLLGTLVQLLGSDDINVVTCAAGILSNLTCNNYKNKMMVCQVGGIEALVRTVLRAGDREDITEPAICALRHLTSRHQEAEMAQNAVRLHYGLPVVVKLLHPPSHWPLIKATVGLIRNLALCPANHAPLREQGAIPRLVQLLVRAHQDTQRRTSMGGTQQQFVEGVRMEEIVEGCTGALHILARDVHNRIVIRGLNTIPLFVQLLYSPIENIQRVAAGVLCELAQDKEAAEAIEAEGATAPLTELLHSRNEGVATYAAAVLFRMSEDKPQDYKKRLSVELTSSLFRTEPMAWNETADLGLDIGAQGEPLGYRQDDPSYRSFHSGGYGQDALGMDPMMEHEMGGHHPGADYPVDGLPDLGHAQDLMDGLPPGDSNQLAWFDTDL
# [2] = target: T2, full-length beta-Catenin (Uniprot ID P35222) (Homo sapiens, UniProt P35222); assay: Fluorescence polarization IC50 (beta-catenin / 5FAM-TCF4 10-53 competition); format: binding; conditions: fluorescence polarization; read-out: beta-Catenin FP IC50
# T2 construct: 10 nM full-length beta-Catenin (Uniprot ID P35222)
# T2 sequence (P35222 1-781): T1 sequence (P35222 1-781)
Structure (SMILES),IC50 ([1]; absolute IC50),IC50 [2],IC50 [1]
"CC(=O)N1CCC[C@]12CC=CCCCC1(CCCC=CCCCOC(=O)N3CC[C@@](C(=O)N[C@@H](Cc4ccccc4C(F)(F)F)C(=O)N[C@@H](Cc4csc5cccc(Cl)c45)C(=O)N[C@@H](CCC(N)=O)C(N)=O)(C3)NC(=O)[C@H](CC(C)C)NC(=O)[C@H](Cc3ccccc3)NC(=O)[C@H](C)NC(=O)[C@H](C)NC(=O)[C@H](Cc3cccc(C(=O)O)c3)NC(=O)[C@H](CC(=O)O)NC1=O)NC(=O)[C@H](CC(C)(C)C)NC(=O)[C@H](CC(=O)O)NC2=O (stereo partly drawn) [I-2490, Ac-PL3-Asp-Npg-B5-Asp-3COOHF-Ala-Ala-Phe-Leu-PyrS2-2F3MeF-4C1BztA-Gln-NH2]",6400 nM,39 nM,–
"CC(=O)N1CCC[C@]12CC=CCCCC1(CCCC=CCCCOC(=O)N3CC[C@@](C(=O)N[C@@H](Cc4ccsc4)C(=O)N[C@@H](Cc4csc5ccccc45)C(=O)N[C@@H](CC(N)=O)C(N)=O)(C3)NC(=O)[C@H](CC(C)C)NC(=O)[C@H](Cc3ccccc3)NC(=O)[C@H](C)NC(=O)[C@H](C)NC(=O)[C@H](CN(CC(=O)O)CC(F)(F)F)NC(=O)[C@H](CC(=O)O)NC1=O)NC(=O)[C@H](CC(C)(C)C)NC(=O)[C@H](CC(=O)O)NC2=O (stereo partly drawn) [I-1705, Ac-PL3-Asp-Npg-B5-Asp-TfeGA-Ala-Ala-Phe-Leu-PyrS2-3Thi-BztA-Asn-NH2]",2900 nM,9 nM,–
"CC(=O)N1CCC[C@]12CC=CCCCC1(CCCC=CCCCOC(=O)N3CC[C@@](C(=O)N[C@@H](Cc4ccsc4)C(=O)N[C@@H](Cc4csc5ccccc45)C(=O)N[C@@H](CC(C)C)C(N)=O)(C3)NC(=O)[C@H](CC(C)C)NC(=O)[C@H](Cc3ccccc3)NC(=O)[C@H](C)NC(=O)[C@H](CCC(N)=O)NC(=O)[C@H](Cc3cccc(C(=O)O)c3)NC(=O)[C@H](CC(=O)O)NC1=O)NC(=O)[C@H](CC(C)(C)C)NC(=O)[C@H](CC(=O)O)NC2=O (stereo partly drawn) [I-2056, Ac-PL3-Asp-Npg-B5-Asp-3COOHF-Gln-Ala-Phe-Leu-PyrS2-3Thi-BztA-Leu-NH2]",–,16 nM,6500 nM
"CC(=O)N1CCC[C@]12CC=CCCCC1(CCCC=CCCCOC(=O)N3CC[C@@](C(=O)N[C@@H](Cc4ccsc4)C(=O)N[C@@H](Cc4csc5ccccc45)C(=O)N[C@@H](C)C(N)=O)(C3)NC(=O)[C@H](CC(C)C)NC(=O)[C@H](Cc3ccc(F)cc3)NC(=O)[C@H](C)NC(=O)[C@H](C)NC(=O)[C@H](Cc3cccc(C(=O)O)c3)NC(=O)[C@H](CC(=O)O)NC1=O)NC(=O)[C@H](CC(C)(C)C)NC(=O)[C@H](CC(=O)O)NC2=O (stereo partly drawn) [I-2262, Ac-PL3-Asp-Npg-B5-Asp-3COOHF-Ala-Ala-4FF-Leu-PyrS2-3Thi-BztA-Ala-NH2]",3700 nM,18 nM,–
"CC(=O)N1CCC[C@]12CC=CCCCC1(CCCC=CCCCOC(=O)N3CC[C@@](C(=O)N[C@@H](Cc4ccccc4Cl)C(=O)N[C@@H](Cc4csc5ccccc45)C(N)=O)(C3)NC(=O)[C@H](CC(C)C)NC(=O)[C@H](Cc3ccccc3)NC(=O)[C@H](C)NC(=O)[C@H](C)NC(=O)[C@H](Cc3cccc(C(=O)O)c3)NC(=O)[C@H](CC(=O)O)NC1=O)NC(=O)[C@H](CC(C)(C)C)NC(=O)[C@H](CC(=O)O)NC2=O (stereo partly drawn) [I-1852, Ac-PL3-Asp-Npg-B5-Asp-3COOHF-Ala-Ala-Phe-Leu-PyrS2-2C1F-BztA-NH2]",–,48 nM,4900 nM
"CC(=O)N1CCC[C@]12CC=CCCCC1(CCCC=CCCCOC(=O)N3CC[C@@](C(=O)N[C@@H](Cc4ccsc4)C(=O)N[C@@H](Cc4ccc5c(c4)CCC5)C(=O)N[C@@H](CCC(N)=O)C(N)=O)(C3)NC(=O)[C@H](CC(C)C)NC(=O)[C@H](Cc3ccccc3)NC(=O)[C@H](C)NC(=O)[C@H](C)NC(=O)[C@H](Cc3cccc(C(=O)O)c3)NC(=O)[C@H](CC(=O)O)NC1=O)NC(=O)[C@H](CC(C)(C)C)NC(=O)[C@H](CC(=O)O)NC2=O (stereo partly drawn) [I-2295, Ac-PL3-Asp-Npg-B5-Asp-3COOHF-Ala-Ala-Phe-Leu-PyrS2-3Thi-5IndA-Gln-NH2]",3300 nM,5 nM,–
